According to patent US10792335B2, “Rapid-acting insulin composition comprising a substituted citrate” (ADOCIA, priority 2015, dated 2020):
Peptide text beside a SMILES is read from it. * marks the point of attachment. Cbz = O=C(OCc1ccccc1)*

Columns and labels:
[1] = injected by the subcutaneous route, diabetic patients; cited from earlier work
[2] = molecular target: T1, hexameric R6 form of human insulin (Homo sapiens, UniProt P01308); assay: Association state of human insulin evaluated by circular dichroism (CD signal at 240 nm); assay type: physicochemical; conditions: human insulin 100 IU/mL (Humulin R), pH 7.4; additive alone (EDTA 300 μM or 6 mM; substituted citrate 7.3 or 14.6 mg/mL)
T1 construct: The human insulin has a strong signal at 240 nm, characteristic of the hexameric R6 form
Protocol: Circular dichroism makes it possible to study the secondary and quaternary structures of insulin. The monomers of insulin self-organize to form dimers and hexamers. […] There are two hexameric forms, the R6 form and the T6 form. […] The loss of the signal at 240 nm is connected with a destabilization of the hexamer and the conversion from R6 to T6.
For a final volume of 100 mL of formulation, with a concentration of substituted citrate at 7.3 mg/mL and a concentration of 9.3 mM of citrate, the different reagents are added in quantities specified below and in the following order:
For a final volume of 100 mL of formulation, with a concentration of substituted citrate at 7.3 mg/mL or 14.6 mg/mL, the different reagents are added in the quantities specified below and in the following order:
For a final volume of 100 mL of formulation, with a concentration of 300 μM or 6 mM of EDTA, the different reagents are added in the quantities specified below and in the following order:
(§1) Two measurement series were carried out.

[3] = molecular target: T2, hexameric R6 form of insulin lispro (Homo sapiens, UniProt P01308, K53P/P52K); assay: Association state of the insulin lispro evaluated by circular dichroism (CD signal at 240 nm); assay type: physicochemical; conditions: insulin lispro 100 IU/mL (Humalog), pH 7.4; additive alone (EDTA 300 μM; substituted citrate 7.3 or 14.6 mg/mL)
T2 construct: The insulin lispro has a strong signal at 240 nm characteristic of the hexameric R6 form; purchased Lilly
Protocol: Circular dichroism makes it possible to study the secondary and quaternary structure of the insulin. The monomers of insulin self-organize to form dimers and hexamers. […] There are two hexameric forms, R6 form and T6 form. […] The loss of the signal at 240 nm is connected with a destabilization of the hexamer and the conversion from R6 to T6.
For a final volume of 100 mL of formulation, with a concentration of substituted citrate at 7.3 mg/mL and a concentration of 9.3 mM of citrate, the different reagents are added in the quantities specified below and in the following order:
For a final volume of 100 mL of formulation, with a concentration of substituted citrate at 7.3 mg/mL, the different reagents are added in the quantities specified below and in the following order:
For a final volume of 100 mL of formulation, with a concentration of 300 μM of EDTA, the different reagents are added in the quantities specified below and in the following order:
as §1
Circular dichroism makes it possible to study the secondary and quaternary structures of insulin. The monomers of insulin self-organize to form dimers and hexamers. […]
For a final volume of 100 mL of formulation, with a concentration of substituted citrate at 7.3 mg/mL or 14.6 mg/mL, the different reagents are added in the quantities specified below and in the following order: […]

[4] = Solubility in a buffer solution at 50 mM Tris/HCl pH 7.4 (visual inspection); assay type: physicochemical
Protocol: The solubility of the substituted citrates (A1, A2, A3 and A4) was measured in a buffer solution.
In a buffer solution at 50 mM of Tris/HCl, pH 7.4 (1 mL), the substituted citrate in powder form (20 mg) is introduced. The tubes are stirred (rolling shaker) for 30 minutes at ambient temperature, then inspected visually. The pH is adjusted to 7.4±0.4.
The solubility of the compounds of the prior art (CE1 and CE2) was measured.
4 mL of a buffer solution at 50 mM of Tris/HCl at pH 7.4 were introduced into a glass tube, at ambient temperature. The compounds in powder form were added successively in the amount of 8 mg per addition. After each addition of compound, the tubes were stirred (rolling shaker) for 30 minutes at ambient temperature, then inspected visually. The pH is adjusted to 7.4±0.4.
The concentrations at which insoluble matter was observed are defined as being greater than the limit of solubility of the compound.

[5] = Solubility in the presence of insulin lispro 100 IU/mL (commercial Humalog, visual inspection); assay type: physicochemical; conditions: commercial insulin lispro solution (Humalog) 100 IU/mL, aqueous with cosolvent or surfactant or cyclodextrin, thermodynamic from solid, pH 7.4±0.4, ambient temperature, 30 minutes stirring, read-out: Solubility (limit of solubility)
Protocol: The solubility of the substituted citrates (A1, A2, A3 and A4) is measured in the presence of insulin lispro 100 U/mL. In a commercial solution of insulin lispro (Humalog®) (1 mL), the substituted citrate in powder form (20 mg) is introduced. The tube was stirred (rolling shaker) for 30 minutes at ambient temperature, then inspected visually. The pH is adjusted to 7.4±0.4.
The solubility of the compounds of the prior art was also measured in the presence of insulin lispro 100 U/mL. 1 mL of a commercial solution of Humalog was introduced into a glass tube, at ambient temperature. The compounds in powder form were added successively in the amount of 2 mg per addition. After each addition of compound, the tubes were stirred (rolling shaker) for 30 minutes at ambient temperature, then inspected visually. The pH is adjusted to 7.4±0.4.
The concentrations at which insoluble matter was observed are defined as being greater than the limit of solubility of the compound in the presence of insulin lispro 100 IU/mL.

[6] = 50 mM Tris/HCl buffer, aqueous buffer, thermodynamic from solid, buffer solution 50 mM Tris/HCl, pH 7.4, ambient temperature, 30 minutes stirring, read-out: Solubility (limit of solubility)
[7] = pH 7.4, thermodynamic from solid, medium not named at this place, sums up Tables 3 and 4 (Tris/HCl buffer and Humalog), read-out: limit of solubility (summary statement)

T1 sequence (P01308 25-54 limits assumed): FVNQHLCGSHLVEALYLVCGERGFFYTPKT
T1 sequence (P01308 90-110 limits assumed): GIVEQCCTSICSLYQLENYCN
T2 sequence (P01308 25-54 P52K/K53P limits assumed): as the sequence (P01308 25-54 limits assumed) above, with P28K, K29P counted along it

Compound | time after which a hypoglycemic effect is produced [1] | impact on the CD signal at 240 nm / R6 form of the human insulin hexamer [2] | impact on the CD signal at 240 nm / R6 form of the insulin lispro hexamer [3] | solubility at 30 min [4, 6] | solubility at 30 min [4, 7] | solubility at 30 min [5]
human insulin: human insulin produced by genetic engineering, injected subcutaneously | 60 min |  |  |  |  | 
O=C(O)CN(CCN(CC(=O)O)CC(=O)O)CC(=O)O [EDTA] |  | completely destructures the R6 form | completely destructures the R6 form |  |  | 
O=C(N[C@@H](Cc1ccccc1)C(=O)N[C@@H](Cc1ccccc1)C(=O)O)OCc1ccccc1 [CE1, N-Carbobenzoxy-L- phenylalanyl-L- phenylalanine] (Cbz-Phe-Phe-OH) |  |  |  | < 2000 µg/mL | < 2000 µg/mL | < 2000 µg/mL
O=C(N[C@@H](Cc1ccccc1)C(=O)O)c1ccccc1 [CE2, Benzoyl-L- phenylalanine] |  |  |  | < 2000 µg/mL | < 2000 µg/mL | < 2000 µg/mL
